# Experimental data from patent US10369185B2, “Methods and compositions for enhancement of ability to concentrate” (KYOWA HAKKO BIO CO., LTD., priority 2014, dated 2019).
# Entries after “also recorded” stand apart in the source; their conditions may differ. Peptide text beside a SMILES is read from it.
# Assays:
# [1] = in vivo; cited from earlier work
# [2] = alanylglutamine compared to glutamine; cited from earlier work
# [3] = test system: male runners; experiment: Lower body reaction, 20-second Quick Board test; type: in vivo, human; settings: for QuickBoard Hit Δ, group mean: Post-Pre; for changes in lower body reaction (Quick Board): LD and HD, no significant differences between groups
# Procedure: The testing protocol is depicted in FIG. 1. Data collection occurred on four separate occasions. Each session required participants to perform a 60-min run at 75% of their previously measured VO2max. Following this run, all participants performed a run at 90% of their VO2max until volitional exhaustion. All participants performed their first trial (DHY) without any rehydration. During this session the total weight lost during the trial was determined. The fluid loss that occurred during this session was then used to determine the participant's swear rate (L·hr^−1). To continue in the study, participant's sweat rate was or exceeded 1.3 L·hr^−1. During the next three trails participants were provided 250 ml of fluid every 15 minutes in equal amounts. During one of the trials participants consumed only a flavored sports drink (ELECT only), while during the other trials participants consumed the alanine-glutamine supplement (Sustamine™) mixed in the same flavored sports drink at either a low (LD: 300 mg per 500 ml) or high (HD: 1 g per 500 ml) dose. A Lower body reaction time was assessed by a 20-second reaction test on the Quick Board™ (The Quick Board, LLC, Memphis, Tenn.) reaction timer (QB). Participants stood on a board of five circles, in a 2×1×2 pattern. The participant straddled the middle circle and reacted to a visual stimulus located on a display box that depicted one of five potential lights that corresponded with the circles on the board. Upon activation of the light, the participant attempted to move the foot closest to the circle that corresponded to the visual stimulus. Upon a successful connection the next stimulus appeared. The total number of successful attempts for the 20-second test and the average time between the activation of the light and the response to the corresponding circle were recorded. Additionally, to make inferences on true effects of the different trials on reaction performance, an analysis based on the magnitude of differences, calculated from 90% confidence intervals, as previously described by Batterham and Hopkins (2005), was used in this study. Differences in Post-Pre performance (Δresponse) between trials were analyzed via a published spreadsheet (Hopkins 2007), with the smallest non-trivial change set at 20% of the grand standard deviation (Batterham and Hopkins 2005). All data are expressed as a mean effect±SD, with percent chances of a beneficial, trivial or negative outcome. Qualitative inferences, based on quantitative chances were assessed as: <1% almost certainly not, 1-5% very unlikely, 5-25% unlikely, 25-75% possibly, 75-95% likely, 95-99% very likely and >99% almost certainly (Hopkins 2002).
# [4] = test system: male runners; experiment: Serial subtraction test (modified Serial Sevens Test); type: in vivo, human; settings: between trials
# Procedure: The testing protocol is depicted in FIG. 1. Data collection occurred on four separate occasions. Each session required participants to perform a 60-min run at 75% of their previously measured VO2max. Following this run, all participants performed a run at 90% of their VO2max until volitional exhaustion. All participants performed their first trial (DHY) without any rehydration. During this session the total weight lost during the trial was determined. The fluid loss that occurred during this session was then used to determine the participant's swear rate (L·hr^−1). To continue in the study, participant's sweat rate was or exceeded 1.3 L·hr^−1. During the next three trails participants were provided 250 ml of fluid every 15 minutes in equal amounts. During one of the trials participants consumed only a flavored sports drink (ELECT only), while during the other trials participants consumed the alanine-glutamine supplement (Sustamine™) mixed in the same flavored sports drink at either a low (LD: 300 mg per 500 ml) or high (HD: 1 g per 500 ml) dose.
# A modified version of the original Serial Sevens Test was utilized to analyze cognitive function. […] The number of correct answers and the average time per correct answer was recorded.
smiles,measurement,setting,value
C[C@H](N)C(=O)N[C@@H](CCC(N)=O)C(=O)O [L-Alanyl-L-Glutamine] (H-Ala-Gln-OH),degradation in the body,[1],immediately degraded into alanine and glutamine in the body
same,solubility in aqueous solutions,[2],superior
same,stability (heat stability),[2],superior
same,"QuickBoard Hit Δ, Interpretation",[3]; Dehydration vs High Dose,likely lower
same,"QuickBoard Hit Δ, Mean Difference",[3]; Dehydration vs High Dose,−2.6
same,"QuickBoard Hit Δ, Percent Negative",[3]; Dehydration vs High Dose,90.99%
same,"QuickBoard Hit Δ, Percent Positive",[3]; Dehydration vs High Dose,1.92%
same,"QuickBoard Hit Δ, Percent Trivial",[3]; Dehydration vs High Dose,7.10%
same,"QuickBoard Hit Δ, Interpretation",[3]; Dehydration vs Low Dose,likely lower
same,"QuickBoard Hit Δ, Mean Difference",[3]; Dehydration vs Low Dose,−2.2
same,"QuickBoard Hit Δ, Percent Negative",[3]; Dehydration vs Low Dose,88.90%
same,"QuickBoard Hit Δ, Percent Positive",[3]; Dehydration vs Low Dose,1.93%
same,"QuickBoard Hit Δ, Percent Trivial",[3]; Dehydration vs Low Dose,9.16%
same,"QuickBoard Hit Δ, Interpretation",[3]; Gatorade vs High Dose,Unclear
same,"QuickBoard Hit Δ, Mean Difference",[3]; Gatorade vs High Dose,−1.7
same,"QuickBoard Hit Δ, Percent Negative",[3]; Gatorade vs High Dose,73.53%
same,"QuickBoard Hit Δ, Percent Positive",[3]; Gatorade vs High Dose,9.72%
same,"QuickBoard Hit Δ, Percent Trivial",[3]; Gatorade vs High Dose,16.75%
same,"QuickBoard Hit Δ, group mean",[3]; High Dose (1 g per 500 ml),1.17
same,changes in lower body reaction (Quick Board),[3],performance appeared to improve in LD and HD
same,changes in lower body reaction (Quick Board),[3]; listed as L-alanyl-L-glutamine,Performance appeared to improve
same,"QuickBoard Hit Δ, group mean",[3]; Low Dose (300 mg per 500 ml),0.75
same,"QuickBoard Hit Δ, Interpretation",[3]; Low Dose vs Gatorade,Unclear
same,"QuickBoard Hit Δ, Mean Difference",[3]; Low Dose vs Gatorade,1.3
same,"QuickBoard Hit Δ, Percent Negative",[3]; Low Dose vs Gatorade,17.75%
same,"QuickBoard Hit Δ, Percent Positive",[3]; Low Dose vs Gatorade,63.09%
same,"QuickBoard Hit Δ, Percent Trivial",[3]; Low Dose vs Gatorade,19.15%
same,"QuickBoard Hit Δ, Interpretation",[3]; Low Dose vs High Dose,trivial; also recorded: Possibly
same,"QuickBoard Hit Δ, Mean Difference",[3]; Low Dose vs High Dose,0.42
same,"QuickBoard Hit Δ, Percent Negative",[3]; Low Dose vs High Dose,29.69%
same,"QuickBoard Hit Δ, Percent Positive",[3]; Low Dose vs High Dose,0.19%
same,"QuickBoard Hit Δ, Percent Trivial",[3]; Low Dose vs High Dose,70.12%
same,serial subtraction tests and time per successful answer,[4],No significant differences
